These results are taken from PubChem BioAssay AID2745 (NMMLSC, 2010).

The structures appear in SMILES notation. The source made the active and inactive calls. The rule behind the calls is not given here.

This assay can be described thus: LAP4-GFP modulation potency in yeast, dose response, cell-based, MLPCN hits, flow cytometry (AID 2745).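 Note: yeast exposed to compound for three hours at 30 degrees.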 To be noted: S. cerevisiae LAP4-GFP reporter, flow cytometry fluorescence; at 33 µM (top of the series). Background: Flow cytometry measures light scatter and fluorescence of single cells or particles in a stream.

On to `N/C(=N\OC(=O)c1ccc(Cl)cc1Cl)c1ccccc1`, for which the LAP4-GFP fluorescence (kMESF) is 12.4 kMESF (inactive).
Next, `Cc1ccc(-c2nc(C)sc2CC(=O)Nc2nnc(C)s2)cc1`: 3.81 kMESF (inactive); `COc1cc(/C=C2\CC/C(=C\c3cc(OC)c(O)c(OC)c3)C2=O)cc(OC)c1O`: 2.53 kMESF (inactive).
Next, `COc1cccc(N=Cc2nc(-c3ccccc3)oc2OC(C)=O)c1`: 12.8 kMESF (inactive); `CCn1c(/C=C/c2ccc([N+](=O)[O-])o2)nc2ccccc2c1=O`: -69.5 kMESF (inactive); `O=C(Nc1ccccc1)ON=C1CCCC1`: 4.79 kMESF (inactive).
With `COc1ccc(OC)c(S(=O)(=O)ON2C(=O)c3ccccc3C2=O)c1` the figure was 1.75 kMESF (inactive); with `Cc1ccnc(N2C(=O)c3cccc4c([N+](=O)[O-])ccc(c34)C2=O)c1`, 33.2 kMESF (inactive); with `Cc1[nH]n(-c2ncc(-c3ccccc3)s2)c(=O)c1C(c1ccc(Cl)cc1)C(C#N)C#N` (stereo unspecified), 8.02 kMESF (inactive).
`COc1ccc(/C=C2/C(=O)ON=C2c2ccccc2)cc1OC`: the LAP4-GFP fluorescence (kMESF) is 14 kMESF (inactive).
With `COc1cc(/C=C2\C(=O)ON=C2c2ccccc2)cc(Br)c1O` the figure was 14.7 kMESF (inactive); with `Cc1ccc(C(=O)Oc2oc(-c3ccccc3)nc2C=Nc2ccc(N(C)C)cc2)cc1`, 6.02 kMESF (inactive).
Next, `Cc1[nH]c2ccccc2c1C(=O)COC(=O)c1ccc([N+](=O)[O-])s1`: 6.02 kMESF (inactive); `CCOC(=O)CS(=O)(=O)c1nc(-c2ccc(F)cc2)cc(C(F)(F)F)n1`: 11.2 kMESF (inactive).
For the molecule `O=C(COc1ccccc1)N1CCN(c2ncnc3c2cnn3-c2ccccc2)CC1`, the LAP4-GFP fluorescence (kMESF) is 3.38 kMESF (inactive).
Next, `O=C1N(c2ccccc2C(F)(F)F)OC1(Cc1ccccc1)c1ccccc1` (stereo unspecified): 4.48 kMESF (inactive); `O=C(Oc1oc(-c2ccco2)nc1C=Nc1ccc(Cl)cc1)c1ccco1`: 8.92 kMESF (inactive); `Cc1ccc(S(=O)(=O)N2CC(C(=O)O)=CC[C@H]2c2ccc(Cl)cc2)cc1`: 4.05 kMESF (inactive).
Next, `O=c1c2cnn(-c3ccccc3)c2ncn1Cc1ccco1`: 2.63 kMESF (inactive); `COc1ccc(-c2cc3cc(C(=O)O)ccn3c2C(=O)c2ccccc2)cc1`: 6.45 kMESF (inactive); `O=C(Nc1nc2ccc(F)cc2s1)c1ccccn1`: 8.11 kMESF (inactive).
With `O=C(Oc1oc(-c2ccco2)nc1C=Nc1ccccc1)c1ccoc1` the figure was 8.01 kMESF (inactive).
Consider `Cc1nn(C)c(C)c1N1C(=O)c2cccc3c(Br)ccc(c23)C1=O`, for which the LAP4-GFP fluorescence (kMESF) was 5.85 kMESF (inactive).
Next, `Cc1ccc(-c2nc(N)c3c(-c4ccc(C)cc4)nn(C(C)(C)C)c3n2)cc1`: 3.37 kMESF (inactive).
With `O=[N+]([O-])c1cnc(Sc2ccncn2)s1` the figure was 17.8 kMESF (inactive); with `COc1ccc2c(c1)c1nnc(SC)nc1n2C`, 4.19 kMESF (inactive); with `COc1ccccc1[C@@]1(C)ON(c2ccccc2C(F)(F)F)C1=O`, 7.08 kMESF (inactive).
For `CCc1nc2ccccc2c(=O)n1NC(=O)c1c(O)c2cccc3c2n(c1=O)CCC3`, the LAP4-GFP fluorescence (kMESF) is 3.04 kMESF (inactive).
In the case of `Cc1cccc(N2C(=O)C(Cl)=C(Nc3c(C)n(C)n(-c4ccccc4)c3=O)C2=O)c1C`, the LAP4-GFP fluorescence (kMESF) is 6.11 kMESF (inactive).
As for `Cc1cc(C)c(OCC(=O)Nc2nc(-c3ccccn3)cs2)c(C)c1`, the LAP4-GFP fluorescence (kMESF) is 5.78 kMESF (inactive).
With `CN(C)c1ccc(N=Cc2nc(-c3ccccc3)oc2OC(=O)c2cccc(Cl)c2)cc1` the figure was 3.99 kMESF (inactive).
